Test results reported in patent publication US11084808B2, “Oxopicolinamide derivative, preparation method therefor and pharmaceutical use thereof” (Jiangsu Hengrui Medicine Co., Ltd., priority 2016, dated 2021).

System: human blood
Test: In vitro anticoagulant effect on human blood (APTT, CT2)
Assay type: biochemical
Conditions: human plasma
Description: Test Example 2: Determination of In Vitro Anticoagulant Effect of the Compounds of the Present Invention on Human Blood
1. Experimental Materials
Plasma: Human blood was collected in blood collection tubes containing no anticoagulant, and then 3.8% sodium citrate (volume ratio 1:9) was added. The tubes were centrifuged at 2500 rpm for 10 minutes at room temperature, and then the plasma was collected and stored at −80° C.:
Reagents: APTT reagent (Activated partial thromboplastin time assay kit, SIEMENS, Art. No. B4218-1), calcium chloride solution;
Instrument: Coagulation instrument (SYSMEX, CA-500).
The divided plasma was melted at room temperature and mixed well. 10000 μM the test compound dissolved in 100% DMSO was diluted to 3000, 300, 200, 150, 75, 30, 10, 3, 0.3 μM with 100% DMSO, and the blank was 100% DMSO. The reagent, plasma, and compound were placed in corresponding positions in the coagulation instrument, and APTT detection of the compound was carried out.
Curve fitting was carried out by graphpad and CT2 was calculated, i.e., the concentration of the compound corresponding to 2 times the APTT of the blank control.

[1] = Table 2, concentration of the compound corresponding to 2 times the APTT of the blank control

For `COc1cn([C@@H](CCOC(C)(C)C)C(=O)Nc2ccc3nccnc3c2)c(=O)cc1-c1cc(Cl)ccc1-c1nc(C)no1` [Comparative Example 2, (S)-4-(tert-butoxy)-2-(4-(5-chloro-2-(3-methyl-1,2,4-oxadiazol-5-yl)phenyl)-5-methoxy-2-oxopyridin-1 (2H)-yl)-N-(quinoxalin-6-yl)butanamide, reference compound], the “CT2 (compound concentration doubling APTT)” value (“CT2” below) (Table 3 comparison with similar compounds in the published patents) was 13.1 µM.

For `COCCC(C(=O)Nc1ccc2[nH]c(C(=O)O)cc2c1)n1cc(OC)c(-c2cc(Cl)ccc2C(C)=O)cc1=O` (centres unmarked) [Example 1, 5-(2-(4-(2-acetyl-5-chlorophenyl)-5-methoxy-2-oxopyridin-1(2H)-yl)-4-methoxybutanamido)-1H-indole-2-carboxylic acid], the “CT2” value [1] was 4.4 µM.

`COCC[C@@H](C(=O)Nc1ccc2[nH]c(C(=O)O)cc2c1)n1cc(OC)c(-c2cc(Cl)ccc2C(C)=O)cc1=O` [Example 2, (S)-5-(2-(4-(2-acetyl-5-chlorophenyl)-5-methoxy-2-oxopyridin-1(2H)-yl)-4-methoxybutanamido)-1H-indole-2-carboxylic acid] was tested, and the “CT2” value [1] was 2.9 µM.

For `COCC[C@H](C(=O)Nc1ccc2[nH]c(C(=O)O)cc2c1)n1cc(OC)c(-c2cc(Cl)ccc2C(C)=O)cc1=O` [Example 3, (R)-5-(2-(4-(2-acetyl-5-chlorophenyl)-5-methoxy-2-oxopyridin-1(2H)-yl)-4-methoxybutanamido)-1H-indole-2-carboxylic acid], the “CT2” value [1] was >10000 µM.

In the case of `COc1cn([C@@H](Cc2ccccc2)C(=O)Nc2ccc(C(=O)O)cc2)c(=O)cc1-c1cc(Cl)ccc1C(C)=O` [Example 5, (S)-4-(2-(4-(2-acetyl-5-chlorophenyl)-5-methoxy-2-oxopyridin-1(2H)-yl)-3-phenylpropanamido)benzoic acid], the “CT2” value [1] is reported as 2.0 µM.

In the case of `COc1cn([C@H](Cc2ccccc2)C(=O)Nc2ccc(C(=O)O)cc2)c(=O)cc1-c1cc(Cl)ccc1C(C)=O` [Example 6, (R)-4-(2-(4-(2-acetyl-5-chlorophenyl)-5-methoxy-2-oxopyridin-1(2H)-yl)-3-phenylpropanamido)benzoic acid], the “CT2” value [1] is reported as >10000 µM.

`CCC(=O)c1ccc(Cl)cc1-c1cc(=O)n(C(Cc2ccccc2)C(=O)Nc2ccc(C(=O)O)cc2)cc1OC` (centres unmarked) [Example 8, 4-(2-(4-(5-chloro-2-propionylphenyl)-5-methoxy-2-oxopyridin-1(2H)-yl)-3-phenylpropanamido)benzoic acid] was tested, and the “CT2” value [1] was 6.4 µM.

`CCC(=O)c1ccc(Cl)cc1-c1cc(=O)n([C@@H](Cc2ccccc2)C(=O)Nc2ccc(C(=O)O)cc2)cc1OC` [Example 9, (S)-4-(2-(4-(5-chloro-2-propionylphenyl)-5-methoxy-2-oxopyridin-1(2H)-yl)-3-phenylpropanamido)benzoic acid] was tested, and the “CT2” value [1] was 2.4 µM.

In the case of `COc1cn([C@@H](Cc2ccccc2)C(=O)Nc2ccc(C(N)=O)cc2)c(=O)cc1-c1cc(Cl)ccc1C(C)=O` [Example 11, (S)-4-(2-(4-(2-acetyl-5-chlorophenyl)-5-methoxy-2-oxopyridin-1(2H)-yl)-3-phenylpropanamido)benzamide], the “CT2” value [1] is reported as 4.2 µM.

For `CNC(=O)c1ccc(NC(=O)[C@H](Cc2ccccc2)n2cc(OC)c(-c3cc(Cl)ccc3C(C)=O)cc2=O)cc1` [Example 13, (S)-4-(2-(4-(2-acetyl-5-chlorophenyl)-5-methoxy-2-oxopyridin-1(2H)-yl)-3-phenylpropanamido)-N-methylbenzamide], the “CT2” value [1] was 6.0 µM.

With `COc1cn([C@@H](Cc2ccccc2)C(=O)Nc2ccc3nn(C)cc3c2)c(=O)cc1-c1cc(Cl)ccc1C(C)=O` [Example 20, (S)-2-(4-(2-acetyl-5-chlorophenyl)-5-methoxy-2-oxopyridin-1(2H)-yl)-N-(2-methyl-2H-indazol-5-yl)-3-phenylpropanamide] the “CT2” value [1] was 6.5 µM.

For `COc1cn([C@@H](Cc2ccccc2)C(=O)Nc2ccc(C(=O)O)cc2)c(=O)cc1-c1c(C(C)=O)ccc(Cl)c1F` [Example 31, (S)-4-(2-(4-(6-acetyl-3-chloro-2-fluorophenyl)-5-methoxy-2-oxopyridin-1(2H)-yl)-3-phenylpropanamido)benzoic acid], the “CT2” value [1] was 8.5 µM.

In the case of `CCNC(=O)c1ccc(NC(=O)[C@H](Cc2ccccc2)n2cc(OC)c(-c3cc(Cl)ccc3C(C)=O)cc2=O)cc1` [Example 37, (S)-4-(2-(4-(2-acetyl-5-chlorophenyl)-5-methoxy-2-oxopyridin-1(2H)-yl)-3-phenylpropanamido)-N-ethylbenzamide], the “CT2” value [1] is reported as 7.8 µM.

In the case of `COc1cn(C(Cc2ccccc2)C(=O)Nc2ccc(C(=O)O)cc2)c(=O)cc1-c1cc(Cl)ccc1C(=O)CC1CC1` (centres unmarked) [Example 39, 4-(2-(4-(5-chloro-2-(2-cyclopropylacetyl)phenyl)-5-methoxy-2-oxopyridin-1(2H)-yl)-3-phenylpropanamido)benzoic acid], the “CT2” value [1] is reported as 8.3 µM.

With `COc1cn([C@@H](Cc2ccccn2)C(=O)Nc2ccc(C(=O)O)cc2)c(=O)cc1-c1cc(Cl)ccc1C(C)=O` [Example 80, (S)-4(2-(4-(2-acetyl-5-chlorophenyl)-5-methoxy-2-oxopyridin-1(2H)-yl)-3-(pyridin-2-yl)propanamido)benzoic acid] the “CT2” value [1] was 7.9 µM.

For `COc1cn([C@H](Cc2ccccn2)C(=O)Nc2ccc(C(=O)O)cc2)c(=O)cc1-c1cc(Cl)ccc1C(C)=O` [Example 81, (R)-4-(2-(4-(2-acetyl-5-chlorophenyl)-5-methoxy-2-oxopyridin-1(2H)-yl)-3-(pyridin-2-yl)propanamido)benzoic acid], the “CT2” value [1] was >10000 µM.

For `COc1cn([C@@H](Cc2ccccn2)C(=O)Nc2ccc(C(N)=O)cc2)c(=O)cc1-c1cc(Cl)ccc1C(C)=O` [Example 85, (S)-4-(2-(4-(2-acetyl-5-chlorophenyl)-5-methoxy-2-oxopyridin-1(2H)-yl)-3-(pyridin-2-yl)propanamido)benzamide], the “CT2” value [1] was 6.5 µM.

In the case of `COc1cn([C@@H](Cc2cccc(C#N)c2)C(=O)Nc2ccc(C(=O)O)cc2)c(=O)cc1-c1cc(Cl)ccc1C(C)=O` [Example 89, (S)-4-(2-(4-(2-acetyl-5-chlorophenyl)-5-methoxy-2-oxopyridin-1(2H)-yl)-3-(3-cyanophenyl)propanamido)benzoic acid], the “CT2” value [1] is reported as 5.7 µM.

For `CCC(=O)c1ccc(Cl)cc1-c1cc(=O)n(C(Cc2ccn(C3CC3)n2)C(=O)Nc2ccc(C(=O)O)cc2)cc1OC` (centres unmarked) [Example 91, 4-(2-(4-(5-chloro-2-propionylphenyl)-5-methoxy-2-oxopyridin-(2H)-yl)-3-(1-cyclopropyl-1H-pyrazol-3-yl)propanamido)benzoic acid], the “CT2” value [1] was 2.1 µM.

In the case of `CCC(=O)c1ccc(Cl)cc1-c1cc(=O)n([C@@H](Cc2ccn(C3CC3)n2)C(=O)Nc2ccc(C(=O)O)cc2)cc1OC` [Example 92, (S)-4-(2-(4-(5-chloro-2-propionylphenyl)-5-methoxy-2-oxopyridin-1(2H)-yl)-3-(1-cyclopropyl-1H-pyrazol-3-yl)propanamido)benzoic acid], the “CT2” value [1] is reported as 1.2 µM.

`COc1cn(C(Cc2ccn(C3CC3)n2)C(=O)Nc2ccc(C(=O)O)cc2)c(=O)cc1-c1cc(Cl)ccc1C(C)=O` (centres unmarked) [Example 93, 4-(2-(4-(2-acetyl-5-chlorophenyl)-5-methoxy-2-oxopyridin-1(2H)-yl)-3-(1-cyclopropyl-1H-pyrazol-3-yl)propanamido)benzoic acid] was tested, and the “CT2” value [1] was 2.9 µM.

With `COc1cn([C@@H](Cc2ccn(C3CC3)n2)C(=O)Nc2ccc(C(=O)O)cc2)c(=O)cc1-c1cc(Cl)ccc1C(C)=O` [Example 94, (S)-4-(2-(4-(2-acetyl-5-chlorophenyl)-5-methoxy-2-oxopyridin-1(2H)-yl)-3-(1-cyclopropyl-1H-pyrazol-3-yl)propanamido)benzoic acid] the “CT2” value [1] was 2.2 µM.

For `COc1cn(C(Cc2ccn(C3CC3)n2)C(=O)Nc2ccc3nccnc3c2)c(=O)cc1-c1cc(Cl)ccc1C(C)=O` (centres unmarked) [Example 96, 2-(4-(2-acetyl-5-chlorophenyl)-5-methoxy-2-oxopyridin-1(2H)-yl)-3-(1-cyclopropyl-1H-pyrazol-3-yl)-N-(quinoxalin-6-yl)propanamide], the “CT2” value [1] was 6.7 µM.

With `COc1cn(C(Cc2ccn(C3CC3)n2)C(=O)Nc2ccc3nn(C)cc3c2)c(=O)cc1-c1cc(Cl)ccc1C(C)=O` (centres unmarked) [Example 97, 2-(4-(2-acetyl-5-chlorophenyl)-5-methoxy-2-oxopyridin-(2H)-yl)-3-(1-cyclopropyl-1H-pyrazol-3-yl)-N-(2-methyl-2H-indazol-5-yl)propanamide] the “CT2” value [1] was 5.4 µM.

For `COc1cn(C(Cc2ccn(C3CC3)n2)C(=O)Nc2ccc3ncncc3c2)c(=O)cc1-c1cc(Cl)ccc1C(C)=O` (centres unmarked) [Example 98, 2-(4-(2-acetyl-5-chlorophenyl)-5-methoxy-2-oxopyridin-1(2H)-yl)-3-(1-cyclopropyl-1H-pyrazol-3-yl)-N-(quinazolin-6-yl)propanamide], the “CT2” value [1] was 7.6 µM.

With `CCC(=O)c1ccc(Cl)cc1-c1cc(=O)n(C(Cc2ccn(C)n2)C(=O)Nc2ccc(C(=O)O)cc2)cc1OC` (centres unmarked) [Example 99, 4-(2-(4-(5-chloro-2-propionylphenyl)-5-methoxy-2-oxopyridin-1(2H)-yl)-3-(1-methyl-1H-pyrazol-3-yl)propanamido)benzoic acid] the “CT2” value [1] was 3.5 µM.
